Source: PubChem BioAssay (NCI)
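Cells were grown in 96-well plates and exposed to each compound for 48 hours at five concentrations; endpoints were interpolated linearly between bracketing concentrations, or set to the highest concentration if not reached. At the GI50, growth is halved. TGI marks complete inhibition of growth.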

How the values were obtained:
Test in all cases: NCI tumour cell line growth inhibition, 48 h
[1] = system: A498 renal
[2] = system: MDA-MB-435
[3] = system: KM12 colon
[4] = system: HOP-92 NSCLC
[5] = system: SK-MEL-2 melanoma
[6] = system: HCC-2998 colon
[7] = system: SNB-75 CNS
[8] = system: ACHN renal
[9] = system: TK-10 renal
[10] = system: HCT-116 colon
[11] = system: RPMI-8226 leukemia
[12] = system: SW-620 colon
[13] = system: BT-549 breast
[14] = system: T-47D breast
[15] = system: UACC-257 melanoma
[16] = system: SF-268 CNS
[17] = system: NCI-H522 lung
[18] = system: SF-295 CNS
[19] = system: UACC-62 melanoma
[20] = system: SK-MEL-5 melanoma
[21] = system: K-562 leukemia
[22] = system: NCI-H460 lung
[23] = system: 786-0 renal
[24] = system: SR leukemia
[25] = system: MDA-MB-231 breast
[26] = system: A549 NSCLC
[27] = system: U251 CNS
[28] = system: UO-31 renal
[29] = system: IGROV1 ovarian
[30] = system: SK-OV-3 ovarian
[31] = system: NCI-H226 lung
[32] = system: RXF 393 renal
[33] = system: SN12C renal
[34] = system: HL-60(TB) leukemia
[35] = system: CCRF-CEM leukemia
[36] = system: OVCAR-5 ovarian
[37] = system: LOX IMVI melanoma
[38] = system: HS 578T breast
[39] = system: MOLT-4 leukemia
[40] = system: MDA-MB-468 breast
[41] = system: SNB-19 CNS
[42] = system: OVCAR-8 ovarian
[43] = system: EKVX NSCLC
[44] = system: HOP-62 NSCLC
[45] = system: MALME-3M melanoma
[46] = system: SK-MEL-28 melanoma
[47] = system: HCT-15 colon
[48] = system: SF-539 CNS
[49] = system: HT29 colon
[50] = system: NCI-H23 lung
[51] = system: MCF7 breast
[52] = system: M14 melanoma
[53] = system: OVCAR-3 ovarian
[54] = system: OVCAR-4 ovarian
[55] = system: DU-145 prostate
[56] = system: COLO 205 colon
[57] = system: CAKI-1 renal
[58] = system: PC-3 prostate

## COc1ccccc1[C@H]1C(C(=O)c2ccc(Cl)cc2)C2(N[C@@H]1c1ccccc1)C(=O)Nc1ccc(Cl)cc12 (some centres not stated)
[1]
  GI50: 15.3 µM
  TGI: 52.1 µM
[2]
  GI50: 1.82 µM
  TGI: 8.94 µM
[3]
  GI50: 8.36 µM
  TGI: > 57.5 µM
[4]
  GI50: 4.52 µM
  TGI: 37.1 µM
[5]
  GI50: 4.08 µM
  TGI: 13.6 µM
[6]
  GI50: 9.77 µM
  TGI: 43.8 µM
[7]
  GI50: 2.27 µM
  TGI: > 57.5 µM
[8]
  GI50: 6.62 µM
  TGI: 53.7 µM
[9]
  GI50: 15.8 µM
  TGI: > 57.5 µM
[10]
  GI50: 2.13 µM
  TGI: > 57.5 µM
[11]
  GI50: 5.91 µM
  TGI: 50.7 µM
[12]
  GI50: 4.28 µM
  TGI: > 57.5 µM
[13]
  GI50: 1.35 µM
  TGI: 18.6 µM
[14]
  GI50: 4.61 µM
  TGI: > 57.5 µM
[15]
  GI50: 4.86 µM
  TGI: > 57.5 µM
[16]
  GI50: 9.79 µM
  TGI: > 57.5 µM
[17]
  GI50: 1.3 µM
  TGI: 5.51 µM
[18]
  GI50: 3.43 µM
  TGI: > 57.5 µM
[19]
  GI50: 1.72 µM
  TGI: 8.69 µM
[20]
  GI50: 2.69 µM
  TGI: 10.6 µM
[21]
  GI50: 1.78 µM
  TGI: > 57.5 µM
[22]
  GI50: 2.32 µM
[23]
  GI50: 8.96 µM
  TGI: 35.5 µM
[24]
  GI50: 1.86 µM
  TGI: 26.6 µM
[25]
  GI50: 1.36 µM
  TGI: 12.5 µM
[26]
  GI50: 2.76 µM
  TGI: > 57.5 µM
[27]
  GI50: 2.86 µM
  TGI: > 57.5 µM
[28]
  GI50: 2.26 µM
  TGI: > 57.5 µM
[29]
  GI50: 9.15 µM
  TGI: > 57.5 µM
[30]
  GI50: 5.17 µM
  TGI: > 57.5 µM
[31]
  GI50: 8.32 µM
  TGI: > 57.5 µM
[32]
  GI50: 1.66 µM
  TGI: 13.8 µM
[33]
  GI50: 2.83 µM
  TGI: 13.5 µM
[34]
  GI50: 1.77 µM
  TGI: 25.2 µM
[35]
  GI50: 2.14 µM
  TGI: > 57.5 µM
[36]
  GI50: 8.44 µM
  TGI: > 57.5 µM
[37]
  GI50: 1.72 µM
  TGI: 21.2 µM
[38]
  GI50: 2.56 µM
  TGI: 34.2 µM
[39]
  GI50: 1.92 µM
  TGI: > 57.5 µM
[40]
  GI50: 1.38 µM
  TGI: 16.2 µM
[41]
  GI50: 14 µM
  TGI: > 57.5 µM
[42]
  GI50: 7.52 µM
  TGI: > 57.5 µM
[43]
  GI50: 8.12 µM
  TGI: > 57.5 µM
[44]
  GI50: 9.31 µM
  TGI: > 57.5 µM
[45]
  GI50: 7.44 µM
  TGI: 21.1 µM
[46]
  GI50: 16.7 µM
  TGI: > 57.5 µM
[47]
  GI50: 6.98 µM
  TGI: > 57.5 µM
[48]
  GI50: 8.51 µM
  TGI: 30.3 µM
[49]
  GI50: 1.73 µM
  TGI: 7.91 µM
[50]
  GI50: 8.68 µM
  TGI: > 57.5 µM
[51]
  GI50: 2 µM
  TGI: > 57.5 µM
[52]
  GI50: 3.55 µM
  TGI: > 57.5 µM
[53]
  GI50: 2.76 µM
  TGI: > 57.5 µM
[54]
  GI50: 10.4 µM
  TGI: > 57.5 µM
[55]
  GI50: 2.56 µM
  TGI: > 57.5 µM
[56]
  GI50: 9.92 µM
  TGI: 21.1 µM
[57]
  GI50: 1.68 µM
  TGI: > 57.5 µM
[58]
  GI50: 1.46 µM
  TGI: > 57.5 µM

## COc1cc(/C=C/C(=O)c2cnn(-c3cc(=O)[nH]c4ccccc34)c2C)cc(OC)c1OC
[1]
  GI50: 34.2 µM
  TGI: > 100 µM
[2]
  GI50: 3.34 µM
  TGI: > 100 µM
[3]
  GI50: 3.83 µM
  TGI: > 100 µM
[4]
  GI50: 7.59 µM
  TGI: 51.8 µM
[5]
  GI50: 2.89 µM
  TGI: 10.2 µM
[6]
  GI50: 4 µM
  TGI: > 100 µM
[8]
  GI50: 3.72 µM
  TGI: 25.5 µM
[9]
  GI50: 4.62 µM
  TGI: > 100 µM
[10]
  GI50: 7.13 µM
  TGI: > 100 µM
[11]
  GI50: 2.99 µM
  TGI: > 100 µM
[12]
  GI50: 3.59 µM
  TGI: > 100 µM
[13]
  GI50: 3.48 µM
  TGI: 24.9 µM
[14]
  GI50: 2.8 µM
  TGI: > 100 µM
[15]
  GI50: 7.03 µM
  TGI: > 100 µM
[16]
  GI50: 4.26 µM
  TGI: > 100 µM
[17]
  GI50: 3.74 µM
  TGI: 39.8 µM
[18]
  GI50: 2.95 µM
  TGI: 18.1 µM
[19]
  GI50: 5.18 µM
  TGI: 20.5 µM
[20]
  GI50: 3.51 µM
  TGI: 14.7 µM
[21]
  GI50: 2.68 µM
  TGI: > 100 µM
[22]
  GI50: 2.55 µM
  TGI: 7.29 µM
[23]
  GI50: 4.56 µM
  TGI: 28.9 µM
[24]
  GI50: 3.82 µM
  TGI: > 100 µM
[25]
  GI50: 3.06 µM
  TGI: 14.1 µM
[26]
  GI50: 3.78 µM
  TGI: > 100 µM
[27]
  GI50: 2.74 µM
  TGI: 13.6 µM
[28]
  GI50: 4.03 µM
  TGI: 37.1 µM
[29]
  GI50: 3 µM
  TGI: 16.3 µM
[30]
  GI50: 5.03 µM
  TGI: 35.9 µM
[31]
  GI50: 5.24 µM
  TGI: 47.8 µM
[32]
  GI50: 2.65 µM
  TGI: 8.21 µM
[33]
  GI50: 2.2 µM
  TGI: 8.36 µM
[34]
  GI50: 3.52 µM
  TGI: > 100 µM
[35]
  GI50: 2.58 µM
  TGI: 21.5 µM
[37]
  GI50: 2.1 µM
  TGI: 5.64 µM
[38]
  GI50: 4.54 µM
  TGI: > 100 µM
[39]
  GI50: 3.28 µM
  TGI: > 100 µM
[40]
  GI50: 2.22 µM
  TGI: 6.06 µM
[41]
  GI50: 5.23 µM
  TGI: > 100 µM
[42]
  GI50: 2.11 µM
  TGI: 5.09 µM
[43]
  GI50: 3.42 µM
  TGI: > 100 µM
[44]
  GI50: 4.43 µM
  TGI: 27.1 µM
[45]
  GI50: 5.84 µM
  TGI: > 100 µM
[46]
  GI50: 4.94 µM
  TGI: > 100 µM
[47]
  GI50: 3.23 µM
  TGI: 26.1 µM
[48]
  GI50: 2.01 µM
  TGI: 4.84 µM
[49]
  GI50: 3.14 µM
  TGI: > 100 µM
[50]
  GI50: 2.66 µM
  TGI: 7.98 µM
[51]
  GI50: 2.88 µM
  TGI: > 100 µM
[52]
  GI50: 4.45 µM
  TGI: > 100 µM
[53]
  GI50: 3.57 µM
  TGI: > 100 µM
[54]
  GI50: 5.48 µM
  TGI: > 100 µM
[55]
  GI50: 4.21 µM
  TGI: > 100 µM
[56]
  GI50: 3.71 µM
  TGI: 17.5 µM
[57]
  GI50: 4.05 µM
  TGI: > 100 µM
[58]
  GI50: 7.39 µM
  TGI: > 100 µM
